{
  "source": "patent US5475032A",
  "about": "“2,4-disulfonyl phenyl butyl nitrone, its salts, and their use as pharmaceuticals” (Oklahoma Medical Research Foundation, priority 1995, dated 1995)",
  "key": {"[1]": {"test_system": "neuron loss following brain ischemia and reperfusion injury", "assay": "neuronal density after 5 min bilateral carotid occlusion, compound i.p. 30 min before ischemia (Example 3)", "format": "in vivo, gerbil", "conditions": "30 min before ischemia", "experimental": "In the experiments a test compound was administered to groups of six gerbils i.p. as a single dose 30 min before 5 min bilateral carotid occlusion. The density of neuronal nuclei in a 100 micron was measured. Two controls were present--controls which received no test compound and controls which received no test compound and no brain ischemia."}, "[2]": {"test_system": "neuron loss following brain ischemia and reperfusion injury", "assay": "neuronal density, post-ischemia treatment, compound i.p. 30 min after reperfusion following 5 min ischemia (Example 4)", "format": "in vivo, gerbil"}, "[3]": {"test_system": "neuronal loss following ischemia", "assay": "protection from neuronal loss, i.v. 60 min after reperfusion onset following 5 min ischemia (Example 5)", "format": "in vivo, gerbil", "conditions": "for protection for neuronal loss (neuronal density): 60 min after reperfusion onset"}, "[4]": {"test_system": "temporal/spatial short term memory following ischemia", "assay": "8-arm radial maze test 24 hours after ischemia (Example 6)", "format": "in vivo, gerbil", "experimental": "Brain injury can manifest itself as behavioral changes. In this experiment, young adult (3-4 months of age) gerbils were tested to determine their ability to perform an 8-arm maze test 24 hours following an ischemic event as described in Example 1. As compared to nonischemic animals, when untreated they committed many more errors. PBN and compound I were administered to some of the test animals."}, "[5]": {"test_system": "infarct volume following middle cerebral occlusion", "assay": "infarct volume after middle cerebral occlusion (Example 7)", "format": "in vivo, C57BL/6J mice", "conditions": "from 60 min after occlusion for 24 hours", "experimental": "The ability of the compound of the invention to reduce infarct volume following an ischemic event was determined."}, "[6]": {"test_system": "lethality from 10 min ischemia", "assay": "lethality protection in aged gerbils from 10 min ischemia (Example 8)", "format": "in vivo, gerbil", "conditions": "30 min before ischemia"}, "C57BL/6L mice": {"test_system": "C57BL/6L mice", "assay": "acute lethality, single i.p. doses of nitrone (Example 9)", "format": "in vivo, mouse", "conditions": "PBN at 560 mg/kg, Compound I at doses nearly twenty times as great", "experimental": "As detailed in Table 7. acute lethality in C57BL/6L mice was determined based upon varying sizes of single i.p. doses of nitrone."}, "[7]": {"test_system": "glutamine synthetase (GS)", "assay": "protection of glutamine synthetase against βAP 25-35 (Example 11)", "format": "biochemical, gerbil", "conditions": "co-incubation with 0.4 mg/ml BAP 25-35", "experimental": "(§1) Cytosolic fractions from gerbil neocortex were prepared and enzyme activities determined. Samples were incubated in the presence of different concentrations of the peptide for 10 min prior to assay. Solid symbols represent the effects of the naturally occurring 25-35 fragment. […] Each point is the mean (+/- s.e.) of 5 observations. βAP derived and other cellular sources of free radicals are an important determinant of the initiation and progression of AD.\n(§2) Each point is the mean (+/- s.e.) of 3 observations."}, "creatine kinase (CK)": {"test_system": "creatine kinase (CK)", "assay": "protection of creatine kinase against βAP 25-35 (Example 11)", "format": "biochemical, gerbil", "conditions": "co-incubation with 0.4 mg/ml BAP 25-35", "experimental": "as §1, §2"}, "[8]": {"assay": "comparative tests: nitrone pretreatment combined with adriamycin (Example 13)", "format": "in vivo, mouse", "conditions": "mouse, in vivo, ip; 300 mg/kg with adriamycin; read-out: combined toxicity (lethality)", "text": "(§3) All injections were intraperitoneal."}, "[9]": {"test_system": "acute lethal effects of adriamycin", "assay": "comparative tests: nitrone pretreatment combined with adriamycin (Example 13)", "format": "in vivo, mouse", "text": "as §3"}, "[10]": {"test_system": "infarct volume following middle cerebral artery occlusion", "conditions": "cited from earlier work"}, "severe trauma ischemia": {"test_system": "severe trauma ischemia", "conditions": "in vivo; cited from earlier work"}, "[11]": {"test_system": "normal or uninjured cells", "conditions": "cited from earlier work"}, "[12]": {"assay": "doses demonstrated to be possible", "conditions": "up to 1000 mg/kg/hour and higher, or i.v. bolus 10 to 2500 mg/kg"}},
  "note": "Where two headings read alike, the source gives them in different places.",
  "data": [
    {"smiles": "CC(C)(C)[N+]([O-])=Cc1ccccc1", "note": "[PBN, Alpha-phenyl tert butyl nitrone]", "values": [
      {"measurement": "Neuronal nuclei/100 micron field", "setting": "[1]; 3.2 mg/kg i.p.", "result": "0.43 Neuronal nuclei/100 micron field"},
      {"measurement": "Neuronal nuclei/100 micron field", "setting": "[1]; 10 mg/kg i.p.", "result": "1.13 Neuronal nuclei/100 micron field"},
      {"measurement": "Neuronal nuclei/100 micron field", "setting": "[1]; 32 mg/kg i.p.", "result": "1.83 Neuronal nuclei/100 micron field"},
      {"measurement": "Neuronal nuclei/100 micron field", "setting": "[1]; 50 mg/kg i.p.", "result": "3.11 Neuronal nuclei/100 micron field"},
      {"measurement": "Neuronal nuclei/100 micron field", "setting": "[1]; 100 mg/kg i.p.", "result": "3.68 Neuronal nuclei/100 micron field"},
      {"measurement": "Neuronal nuclei/100 micron field", "setting": "[1]; 320 mg/kg i.p.", "result": "3.78 Neuronal nuclei/100 micron field"},
      {"measurement": "Neuronal nuclei/100 micron field", "setting": "[1]; 1000 mg/kg i.p.", "result": "Toxic"},
      {"measurement": "Neuronal nuclei/100 micron field", "setting": "[1]; 3200 mg/kg i.p.", "result": "Toxic"},
      {"measurement": "Neuronal nuclei/100 micron field", "setting": "[2]; 32 mg/kg i.p.", "result": "1.09 Neuronal nuclei/100 micron field"},
      {"measurement": "Neuronal nuclei/100 micron field", "setting": "[2]; 50 mg/kg i.p.", "result": "1.85 Neuronal nuclei/100 micron field"},
      {"measurement": "Neuronal nuclei/100 micron field", "setting": "[2]; 100 mg/kg i.p.", "result": "2.11 Neuronal nuclei/100 micron field"},
      {"measurement": "Neuronal nuclei/100 micron field", "setting": "[2]; 320 mg/kg i.p.", "result": "2.25 Neuronal nuclei/100 micron field"},
      {"measurement": "Neuronal nuclei/100 micron field", "setting": "[2]; 1000 mg/kg i.p.", "result": "Toxic"},
      {"measurement": "protection for neuronal loss (neuronal density)", "setting": "[3]; 0.5 mg/kg single dose i.v.", "result": 0.83},
      {"measurement": "protection for neuronal loss (neuronal density)", "setting": "[3]; 1.0 mg/kg single dose i.v.", "result": 1.07},
      {"measurement": "protection for neuronal loss (neuronal density)", "setting": "[3]; 10 mg/kg single dose i.v.", "result": 1.23},
      {"measurement": "effect on neuronal density in control gerbils", "setting": "[3]; control gerbils without brain injury", "result": "Neither PBN nor Compound I. had an effect on neuronal density"},
      {"measurement": "errors in 8-arm radial maze", "setting": "[4]; 1.0 mg/kg/hr for 24 hours", "result": 29.8, "unit": "errors"},
      {"measurement": "errors in 8-arm radial maze", "setting": "[4]; 32 mg/kg/hr for 24 hours", "result": 18.19, "unit": "errors"},
      {"measurement": "errors in 8-arm radial maze", "setting": "[4]; 50 mg/kg/hr for 24 hours", "result": 6.23, "unit": "errors"},
      {"measurement": "errors in 8-arm radial maze", "setting": "[4]; 100 mg/kg/hr for 24 hours", "result": 5.83, "unit": "errors"},
      {"measurement": "error levels", "setting": "[4]; high doses", "result": "less effective"},
      {"measurement": "Infarct Volume", "setting": "[5]; 1.0 mg/kg/hr i.v.", "result": 17.7, "unit": "mm^3"},
      {"measurement": "Infarct Volume", "setting": "[5]; 10 mg/kg/hr i.v.", "result": 13.8, "unit": "mm^3"},
      {"measurement": "Infarct Volume", "setting": "[5]; 100 mg/kg/hr i.v.", "result": "Toxic"},
      {"measurement": "lethality protection (% survived)", "setting": "[6]; 10 mg/kg", "result": 42, "unit": "%"},
      {"measurement": "lethality protection (% survived)", "setting": "[6]; 32 mg/kg", "result": 50, "unit": "%"},
      {"measurement": "lethality protection (% survived)", "setting": "[6]; 100 mg/kg", "result": 75, "unit": "%"},
      {"measurement": "lethality protection (% survived)", "setting": "[6]; 320 mg/kg", "result": 92, "unit": "%"},
      {"measurement": "lethality protection", "setting": "[6]; Compound I: at high levels", "result": "only partially effective"},
      {"measurement": "toxicity", "setting": "C57BL/6L mice", "result": "significant toxicity"},
      {"measurement": "protection of GS against the effects of βAP fragments", "setting": "[7]", "result": "asymptotically leveling out at a substantially incomplete level of protection"},
      {"measurement": "protection of CK against the effects of βAP fragments", "setting": "creatine kinase (CK)", "result": "asymptotically leveling out at a substantially incomplete level of protection"},
      {"measurement": "mortality", "setting": "[8]", "result": "10 to 20", "unit": "%"},
      {"measurement": "sedation", "setting": "[9]; 100 mg/kg", "result": "slight sedation"},
      {"measurement": "sedation", "setting": "[9]; 300 mg/kg", "result": "marked sedation"},
      {"measurement": "infarct volume reduction", "setting": "[10]; 100 mg/kg i.p. at 0.5, 5, 17, 29 and 41 hours post stroke", "result": "approximately 50%"},
      {"measurement": "infarct volume reduction", "setting": "[10]; 100 mg/kg i.p. at 5, 17, 29, and 41 hours post stroke", "result": "approximately 50%"},
      {"measurement": "survival of treated animals vs controls", "setting": "severe trauma ischemia", "result": "more likely to survive than controls"},
      {"measurement": "effect on normal or uninjured cells", "setting": "[11]", "result": "no measurable effect on normal or uninjured cells"},
      {"measurement": "death or acute toxicity", "setting": "[12]", "result": "death or acute toxicity"}
    ]}
  ]
}
